Laboratory results taken from patent publication US20170121752A1, “DETECTION OF ACRYLIC ACID” (AGENCY FOR SCIENCE, TECHNOLOGY AND RESEARCH, priority 2014, published 2017).
Entries after “also recorded” stand apart in the source; their conditions may differ.

Tests used:
C. propionicum = experiment: Fluorescence signal of bacterial cell lysates grown with 3-butynoic acid; type: cell-based, Clostridium propionicum; settings: media with 5 and 10 mM 3-butynoic acid, lysates treated with compound 4
Experimental: The cell lysates were treated with […] of diaryltetrazole compound 4 for fluorescence detection. […] 3-Butynoic acid, an acyl CoA dehydrogenase inhibitor, may be capable of promoting accumulation of acrylyl CoA in cells. In C. propionicum, acrylyl CoA is normally converted to propionyl CoA. However, in the presence of 3-butynoic acid, this reaction is inhibited. […] C. propionicum naturally produces acrylic acid but E. Coli. may not naturally produce acrylic acid.

[1] = Fluorescence assay of the photoactivated reaction between diaryltetrazole and acrylic acid; settings: for λem,max / λex,max: 100 μM compound reacted with acrylic acid; for λem,max / λex,max / Fold increase in fluorescence 100 μM / Fold increase in fluorescence 10 mM: photoirradiation 1 minute at 302 nm; for Fold increase in fluorescence 100 μM / Fold increase in fluorescence 10 mM: 100 μM compound; for Fold increase in fluorescence 100 μM / pH of signal detection peak: 100 μM acrylic acid; for Fold increase in fluorescence 10 mM: 10 mM acrylic acid; for fluorescence increases above the background: reacted with acrylic acid, summary of Table 1
Experimental: A solution containing the diaryltetrazole (0.022 mmol) and acrylic acid (0.02 to 0.050 mmol) was irradiated with a hand-held 302-nm UV lamp for 1 minute. Experiments were performed in a black 96-well plate with a total reaction volume of 100 The maximum excitation wavelengths indicated in Table 1 were used for each of the scans. The fluorescence emission spectrums of the reaction are shown in FIG. 1a to if using 10 μM of acrylic acid. The spectra for control experiments where either of the reactants was omitted have also been depicted in each of FIGS. 1a to 1f.
As mentioned earlier, the lower limit of detection of acrylic acid for compound 4 was 500 nM of acrylic acid upon a 1 minute photoactivation period with UV light at 302 nm. […]
As described above, compound 4 was used in further experiments to detect acrylic acid. The reaction between compound 4 and acrylic acid was carried out in water with a photoactivation time of 1 minute at 302 nm. Using 100 μM of 4, acrylic acid concentrations from 1 μM to 100 μM were readily detectable with a fluorescence microplate reader (see FIG. 3 and example 9).

C. propionicum cells = experiment: In vivo detection of acrylic acid in C. propionicum cells by fluorescence microscopy and lysate fluorescence; type: cell-based, Clostridium propionicum; settings: 100 μM compound 4, 30 min, UV 302 nm 1 minute, with or without 100 μM acrylic acid added
Experimental: To test the diaryltetrazole sensor for in vivo production of acrylic acid, we applied compound 4 to C. propionicum cells. C. propionicum cells were grown to late log phase (OD600˜1.0) in an anoxia chamber and treated with 100 μM of compound 4. After incubating at 37° C. for 30 min in the dark, cells were washed, pelleted, suspended in PBS buffer and mounted on a slide. Cells were exposed to 302 nm UV light for 1 minute and imaged under a fluorescence microscope (using DAPI filters) after about 2 hours of recovery at room temperature. Control cells include cells treated with acrylic acid and compound 4 to observe positive fluorescence; untreated cells and cells treated with acrylic acid alone and without UV treatment. […] This indicates the production of acrylic acid intermediates in these cells and the diaryltetrazole probe is capable of detecting them.

[2] = Reaction monitoring of photoactivated cycloaddition using HPLC and fluorescence
Experimental: 10 mM of compound 4 was dissolved in dichloromethane and methanol (1:1). A separate solution of 10 mM of acrylic acid was dissolved in methanol. 10 μL of 10 mM of compound 4 and 10 μL of 10 mM of acrylic acid were then dissolved in 80 μL of methanol. After vigorous stirring, the mixture was irradiated with a 302 nm UV lamp for 0 seconds, 15 seconds, 30 seconds, 45 seconds, 60 seconds, 90 seconds and 120 seconds, respectively. An aliquot (10 μL) of reaction solution from each sample was withdrawn and immediately injected in the HPLC column. Compound 4 (denoted as A) and the pyrazoline product 4P (denoted as B) in each sample was monitored by UV absorbance at 254 nm and 370 nm. A linear gradient of 5 to 90% MeOH was applied after 3 minutes for 10 minutes, which is then kept constant for 10 minutes before a 7 minutes linear declining gradient of 90 to 5% MeOH. Compound 4 and product 4P were eluted at about 13.4 minutes and 12.4 minutes respectively.
The kinetic reaction studies involving diaryltetrazole compound 4 and acrylic acid were carried out by monitoring with HPLC from 0 to 120 seconds as described above.
Fluorescence turn on of the reaction mixture occurred after 15 seconds. The left vial to the right vial are labelled as no UV activation, 15 seconds, 30 seconds, 45 seconds, 60 seconds, 90 seconds, 120 seconds of UV activation, respectively. […]

E. coli cells = experiment: In vivo detection of acrylic acid in E. coli cells by fluorescence microscopy; type: cell-based; settings: 100 μM acrylic acid 10 minutes, 100 μM compound 4 30 min, UV 302 nm 1 minute
Experimental: The use of compound 4 as an acrylic acid sensor in vivo was tested in this example. E. coli cells were grown to late log phase (OD600˜1.0) and treated with 100 μM acrylic acid for 10 minutes at 37° C. Upon washing, cells were treated with 100 μM of compound 4 and incubated at 37° C. for 30 min in the dark. The cells were washed, pelleted, suspended in 1×PBS and mounted on a slide. They were then exposed to UV light at 302 nm for 1 minute and imaged under a fluorescence microscope (using DAPI filters) after about 2 hours of recovery at room temperature. Control cells include untreated cells; cells treated with either acrylic acid or compound 4 alone and without UV treatment.

[3] = Fluorescence assay of the photoactivated reaction between diaryltetrazole and acrylamide
Experimental: To substantiate the above, the reaction between compound 4 and acrylic acid (AA), and the reaction between compound 4 and acrylamide (a derivative), were carried out in buffers from pH 1 to pH 13. […] Deprotonation of the chromophore appears to result in higher fluorescence intensity of the pyrazoline product.
100 μM acrylic acid and 2 different grades of acrylamides, particularly gel electrophoresis acrylamide (GE) and molecular biology acrylamide (MB), were tested with 100 μM of compound 4 over the entire pH range. The reaction between compound 4 and acrylic acid/acrylamide was carried out in a phosphate buffer (having different pH as indicated) in 10% DMSO with a photoactivation time of 1 minute at 302 nm. Fluorescence was measured using a fluorescence microplate reader. […] Clearly, the detection method of the present disclosure is capable of detecting acrylate derivatives.
Compound 4 was also used to detect acrylamide in vitro. The reaction between compound 4 and acrylamide was carried out in phosphate buffer at pH 9.0 with 10% DMSO with a photoactivation time of 1 minute at 302 nm. Using 100 μM of compound 4, acrylamide concentrations from 1 μM to 100 μM were readily detectable with a fluorescence microplate reader as shown in FIG. 18.
10% (v/v) of different oils in a phosphate buffer of pH 9.0 containing 1% Tween-20 were spiked in with 10 mM Acrylamide (gel electrophoresis grade). Controls were uncontaminated. Reactions of these mixtures were set up with 100 μM of compound 4 with a photoactivation time of 1 minute at 302 nm. Fluorescence was measured using a fluorescence microplate reader.
100 μM of acrylic acid and acrylamide (gel electrophoresis grade) were tested with 100 μM of compound 4 over a pH range of 7 to 13. The reaction between compound 4 and acrylic acid/acrylamide was carried out in a phosphate buffer (having different indicated pH) in 10% DMSO with a photoactivation time of 1 minute at 302 nm. Fluorescence was measured using a fluorescence microplate reader.

λem,max [1]	λex,max [1]	SMILES	Fold increase in fluorescence 100 μM [1]	Fold increase in fluorescence 10 mM [1]	fluorescence increases above the background [1]	further results
482 nm	380 nm	COC(=O)c1ccc(-c2nnn(-c3ccc(F)cc3F)n2)cc1 [Compound 3]	1.12	3.17	around 3 fold	–
482 nm	395 nm	COC(=O)c1ccc(-c2nnn(-c3ccccc3)n2)cc1 [Compound 1]	–	3.23	around 3 fold	–
487 nm	392 nm	COC(=O)c1ccc(-c2nnn(-c3ccc(F)cc3)n2)cc1 [Compound 2]	1.12	3.38	around 3 fold	–

The remaining lines, values behind:

SMILES	λem,max [1]	λex,max [1]	Fold increase in fluorescence 100 μM [1]	Fold increase in fluorescence 10 mM [1]	fluorescence increases above the background [1]	further results
C#CCC(=O)O [3-butynoic acid, 3-Butynoic acid]	–	–	–	–	–	fluorescence signal of cell lysates (C. propionicum): fluorescence signal is higher
Cc1ccc(-c2nnn(-c3ccc(N)cc3)n2)cc1 [Compound 5]	–	–	–	–	–	fluorescence / reactivity towards acrylic acid ([1]; reaction with acrylic acid, photoactivation): No fluorescence; also recorded: unreactive towards acrylic acid, forming little or no fluorescent product
COc1ccc(-n2nnc(-c3ccccc3)n2)cc1 [Compound 7]	–	368 nm	1.43	3.38	around 3 fold	–
O=C(O)c1ccc(-c2nnn(-c3ccccc3)n2)cc1 [Compound 4]	520 nm	380 nm	132	5.15	–	fluorescence of cells (C. propionicum cells): cells were fluorescent; time to completion of the reaction with acrylic acid ([2]; HPLC monitoring, 302 nm UV, methanol): ≤ 90 s; time to fluorescence turn on of the reaction mixture ([2]; compound 4 and acrylic acid in methanol, UV activation): ≤ 15 s; pH of signal detection peak ([1]; 100 μM compound 4, entire pH range, phosphate buffer 10% DMSO (FIG. 17)): 11.0 pH; pH of signal detection peak ([1]; 100 μM compound 4, pH range 7 to 13 (FIG. 21)): 10.0 pH; fluorescence detection of acrylic acid in LB media and minimum media ([1]; 100 μM compound 4, 1 min photoactivation): readily detected before the completion of photoactivation; lower limit of detection of acrylic acid ([1]; 1 minute photoactivation with UV light at 302 nm): 500 nM; Fold increase in fluorescence ([1]; Table 2: 100 μM compound 4, 500 nM acrylic acid): 1.12; Fold increase in fluorescence ([1]; Table 2: 100 μM compound 4, 1 μM acrylic acid): 1.58; Fold increase in fluorescence ([1]; Table 2: 100 μM compound 4, 10 μM acrylic acid): 17; Fold increase in fluorescence ([1]; Table 2: 100 μM compound 4, 100 μM acrylic acid): 132; fluorescence of the probe alone (control experiments) ([1]; buffers pH 1 to pH 13, without analyte): not fluorescent at all pH tested; fluorescence of bacterial cells (E. coli cells): only fluorescent in the presence of both acrylic acid and compound 4; pH of fluorescent peak ([3]; 100 μM acrylamide (gel electrophoresis grade), 100 μM compound 4, pH range 7 to 13 (FIG. 21)): 9.0 pH; pH of signal detection peak ([3]; 100 μM acrylamide, 100 μM compound 4, entire pH range, phosphate buffer 10% DMSO (FIG. 17)): 9.0 pH; detection of acrylamide in a complex organic/detergent mixture ([3]; 10% (v/v) oils, phosphate buffer pH 9.0, 1% Tween-20, 10 mM acrylamide, 100 μM compound 4): able to detect acrylamide in a complex organic/detergent mixture
COc1ccc(-n2nnc(-c3ccc(C)cc3)n2)cc1 [Compound 6]	–	371 nm	–	3.87	around 3 fold	–
